From PubChem BioAssay (NCI) come the findings set out here.

Among the test systems are CAKI-1 renal; DU-145 prostate; HCT-116 colon; HOP-92 NSCLC; K-562 leukemia; MDA-MB-435; NCI-H522 lung; OVCAR-5 ovarian; OVCAR-8 ovarian; RXF 393 renal.
What all share (test): growth of human tumour cells (NCI), 48 h

Molecules are shown by their SMILES.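 Values below derive from 48-hour exposures of cells grown in 96-well plates, with endpoints linearly interpolated between the two concentrations bracketing the appropriate inhibition level. GI50 marks 50% less growth. Definition used: TGI = concentration required for complete inhibition of growth.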

Turning to `CCOC(=O)C(=Cc1ccccc1[N+](=O)[O-])C(=O)OCC`, the GI50 in the assay on CAKI-1 renal is 3.61 µM; with DU-145 prostate, 3.22 µM; with HCT-116 colon it was 2.53 µM; in the assay on HOP-92 NSCLC, 3.67 µM; in the assay on K-562 leukemia it was 3.64 µM; in the assay with MDA-MB-435, 3.08 µM. Also, the GI50 in the assay with NCI-H522 lung is 1.86 µM; in the assay with OVCAR-5 ovarian it was 5.75 µM; in the assay with OVCAR-8 ovarian, 2.87 µM; with RXF 393 renal, 1.33 µM. For the same compound, the TGI is 14.3 µM with CAKI-1 renal; 12 µM in the assay with DU-145 prostate; 7.56 µM in the assay on HCT-116 colon; 8.8 µM in the assay on HOP-92 NSCLC; above 100 µM in the assay with K-562 leukemia; 12.1 µM in the assay on MDA-MB-435. For the same compound, the TGI was 4.63 µM with NCI-H522 lung, 15.7 µM in the assay on OVCAR-5 ovarian, 11.3 µM in the assay on OVCAR-8 ovarian and 2.78 µM with RXF 393 renal.

As to `Clc1ccc2[nH]cc(-c3nc(-c4c[nH]c5ncccc45)cs3)c2c1`, the GI50 with CAKI-1 renal is 1.73 µM; in the assay on DU-145 prostate it was 4.23 µM; in the assay on HCT-116 colon it was 3.23 µM; in the assay on HOP-92 NSCLC, 2.24 µM; in the assay on K-562 leukemia, 2.42 µM; in the assay on MDA-MB-435, 3.44 µM. In addition, the GI50 is 2.73 µM in the assay on NCI-H522 lung, 5.63 µM in the assay with OVCAR-5 ovarian, 3.87 µM in the assay on OVCAR-8 ovarian and 2.69 µM in the assay on RXF 393 renal. The TGI is 11.2 µM in the assay on CAKI-1 renal; 21.4 µM with DU-145 prostate; 13.7 µM in the assay with HCT-116 colon; 8.6 µM in the assay with HOP-92 NSCLC; above 100 µM with K-562 leukemia; 14.8 µM in the assay on MDA-MB-435. Besides, the TGI was 13.7 µM in the assay with NCI-H522 lung, 59.5 µM in the assay with OVCAR-5 ovarian, 20.8 µM in the assay on OVCAR-8 ovarian and 11.4 µM in the assay with RXF 393 renal.

For `CC[C@@]1(O)C(=O)NCc2c1cc1n(c2=O)Cc2cc3c(N)cccc3nc2-1`, the GI50 with CAKI-1 renal was 0.981 µM; in the assay with DU-145 prostate it was 1.04 µM; in the assay on HCT-116 colon, 1.22 µM; in the assay with HOP-92 NSCLC it was 8.64 µM; in the assay with K-562 leukemia it was 3.09 µM; with MDA-MB-435 it was 4.8 µM. In addition, the GI50 in the assay on NCI-H522 lung was 0.176 µM; with OVCAR-5 ovarian it was 11.8 µM; in the assay on OVCAR-8 ovarian it was 2.39 µM; in the assay on RXF 393 renal, 5.35 µM. Also, the TGI was 5.51 µM in the assay on CAKI-1 renal; 17.9 µM in the assay on DU-145 prostate; 44.2 µM in the assay with HCT-116 colon; above 84.1 µM in the assay on HOP-92 NSCLC; 18.5 µM in the assay with MDA-MB-435; 9.71 µM in the assay with NCI-H522 lung. The TGI was above 94.5 µM in the assay on OVCAR-5 ovarian, above 78.7 µM in the assay on OVCAR-8 ovarian and 24.9 µM with RXF 393 renal.

`O=c1nc(Nc2cccc(Cl)c2)oc2cc(Cl)oc(=O)c12`: the GI50 with CAKI-1 renal is 5.93 µM; in the assay with DU-145 prostate it was 10.4 µM; with HCT-116 colon, 10.7 µM; with HOP-92 NSCLC, 5.01 µM; with K-562 leukemia, 16.4 µM; in the assay with MDA-MB-435 it was 5.34 µM. In addition, the GI50 in the assay with NCI-H522 lung was 2.45 µM; in the assay on OVCAR-5 ovarian it was 18.5 µM; with OVCAR-8 ovarian, 7.06 µM; in the assay on RXF 393 renal it was 3.22 µM. For the same compound, the TGI is 21.5 µM in the assay on CAKI-1 renal; 25.3 µM with DU-145 prostate; 41.3 µM with HCT-116 colon; 19.5 µM in the assay on HOP-92 NSCLC; above 100 µM with K-562 leukemia; 20.8 µM in the assay on MDA-MB-435. Also, the TGI in the assay on NCI-H522 lung turned out to be 8.16 µM; in the assay on OVCAR-5 ovarian, 46.2 µM; with OVCAR-8 ovarian it was 32.1 µM; in the assay with RXF 393 renal, 8.52 µM.

For the compound `O=C(Nc1ccc(F)cc1)c1c(NC(=O)C(F)(F)F)sc2c1CCCCC2`, the GI50 in the assay on CAKI-1 renal is 1.35 µM; with DU-145 prostate, 3.43 µM; with HCT-116 colon it was 2.05 µM; in the assay with HOP-92 NSCLC it was 0.269 µM; in the assay with K-562 leukemia, 1.97 µM; in the assay with MDA-MB-435, 2.69 µM. The GI50 with NCI-H522 lung was 1.33 µM; with OVCAR-5 ovarian, 2.89 µM; in the assay with OVCAR-8 ovarian, 2.8 µM; with RXF 393 renal, 1.75 µM. For the same compound, the TGI is 5.17 µM in the assay with CAKI-1 renal; 87.1 µM in the assay on DU-145 prostate; 10.3 µM with HCT-116 colon; 1.38 µM in the assay on HOP-92 NSCLC; above 100 µM in the assay with K-562 leukemia; 17 µM in the assay with MDA-MB-435. Further, the TGI in the assay on NCI-H522 lung was 7.41 µM; in the assay on OVCAR-5 ovarian it was 13.1 µM; in the assay with OVCAR-8 ovarian it was above 100 µM; with RXF 393 renal, 6.56 µM.

For `CC1=C[C@H]2c3c(c(O)c(O)c4oc5ccccc5c(=O)c34)[C@H](c3cc(O)c(O)c4oc5ccccc5c(=O)c34)[C@H]2C(C)(C)C1`, the GI50 in the assay on CAKI-1 renal was 0.675 µM; in the assay with DU-145 prostate it was 1.01 µM; in the assay with HCT-116 colon, 0.224 µM; in the assay with HOP-92 NSCLC it was 1.39 µM; in the assay on K-562 leukemia, 0.22 µM; in the assay with MDA-MB-435, 0.839 µM. Also, the GI50 in the assay with NCI-H522 lung was 1.77 µM; with OVCAR-5 ovarian, 3.18 µM; in the assay on OVCAR-8 ovarian, 0.93 µM; with RXF 393 renal it was 0.42 µM. In addition, the TGI was 8.34 µM with CAKI-1 renal; 14.4 µM in the assay with DU-145 prostate; 1.75 µM in the assay on HCT-116 colon; 5.43 µM in the assay on HOP-92 NSCLC; above 100 µM with K-562 leukemia; 4.42 µM in the assay on MDA-MB-435. The TGI in the assay on NCI-H522 lung was 5.57 µM; in the assay with OVCAR-5 ovarian, 14.7 µM; in the assay with OVCAR-8 ovarian, 46.9 µM; with RXF 393 renal, 2.52 µM.

In the case of `COC(=O)c1c2c(c(C)[n+]([O-])c1C)C(=O)C=C(NCc1ccc(F)c(F)c1)C2=O`, the GI50 was 0.313 µM in the assay on CAKI-1 renal; 1.06 µM in the assay on DU-145 prostate; 0.256 µM in the assay with HCT-116 colon; 1.56 µM with HOP-92 NSCLC; 0.0745 µM in the assay on K-562 leukemia; 0.131 µM with MDA-MB-435. Besides, the GI50 is 0.286 µM in the assay with NCI-H522 lung, 1.14 µM with OVCAR-5 ovarian, 0.291 µM in the assay with OVCAR-8 ovarian and 1.05 µM in the assay with RXF 393 renal. The TGI in the assay on CAKI-1 renal was found to be 2.13 µM; with DU-145 prostate, 2.28 µM; with HCT-116 colon, 0.902 µM; with HOP-92 NSCLC, 3.61 µM; in the assay with MDA-MB-435, 0.27 µM; in the assay with NCI-H522 lung, 1.35 µM. The TGI in the assay with OVCAR-5 ovarian came to 2.49 µM; with OVCAR-8 ovarian, 1.13 µM; in the assay with RXF 393 renal, 2.39 µM.
